# Experimental data as given in US20150099800A1, “NOVEL LIPASE INHIBITORS, REPORTER SUBSTRATES AND USES THEREOF” (Northeastern University, priority 2012, published 2015).
# Like-named read-outs stand apart in the source and are kept apart here.
# Key:
# [1] = molecular target: T1, hDAGLα (Homo sapiens, UniProt Q9Y4D2)
# T1 sequence (Q9Y4D2 1-1042): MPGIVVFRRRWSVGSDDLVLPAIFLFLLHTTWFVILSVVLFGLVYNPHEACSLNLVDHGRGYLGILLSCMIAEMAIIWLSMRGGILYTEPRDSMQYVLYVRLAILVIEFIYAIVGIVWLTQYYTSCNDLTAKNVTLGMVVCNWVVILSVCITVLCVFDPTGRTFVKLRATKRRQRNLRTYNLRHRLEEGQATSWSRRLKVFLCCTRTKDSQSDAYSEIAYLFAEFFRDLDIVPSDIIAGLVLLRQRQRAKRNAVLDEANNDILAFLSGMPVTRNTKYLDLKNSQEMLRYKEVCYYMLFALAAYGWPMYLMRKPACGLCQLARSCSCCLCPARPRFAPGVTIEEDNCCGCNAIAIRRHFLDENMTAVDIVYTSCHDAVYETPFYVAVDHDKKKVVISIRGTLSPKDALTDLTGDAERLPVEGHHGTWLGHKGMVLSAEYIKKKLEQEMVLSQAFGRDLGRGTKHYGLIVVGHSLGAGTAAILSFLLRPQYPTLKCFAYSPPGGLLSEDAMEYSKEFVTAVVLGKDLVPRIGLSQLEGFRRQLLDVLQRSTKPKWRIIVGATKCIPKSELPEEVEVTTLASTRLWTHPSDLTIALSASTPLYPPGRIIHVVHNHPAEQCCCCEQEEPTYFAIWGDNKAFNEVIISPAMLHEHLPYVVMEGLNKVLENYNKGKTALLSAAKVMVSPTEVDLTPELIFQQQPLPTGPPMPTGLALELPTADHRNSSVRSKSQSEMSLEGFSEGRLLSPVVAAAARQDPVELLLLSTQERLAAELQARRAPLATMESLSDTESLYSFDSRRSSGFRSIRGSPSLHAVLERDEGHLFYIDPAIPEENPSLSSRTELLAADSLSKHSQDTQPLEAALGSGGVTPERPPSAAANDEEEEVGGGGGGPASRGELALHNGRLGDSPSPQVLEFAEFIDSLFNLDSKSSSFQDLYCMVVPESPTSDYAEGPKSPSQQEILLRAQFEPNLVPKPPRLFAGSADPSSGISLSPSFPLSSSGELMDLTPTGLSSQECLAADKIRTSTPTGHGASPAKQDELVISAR
# [2] = molecular target: T2, Pancreatic Lipase (Porcine) (Sus scrofa, UniProt P00591); format: biochemical
# T2 construct: purchased Sigma L3126
# T2 sequence (P00591 1-450): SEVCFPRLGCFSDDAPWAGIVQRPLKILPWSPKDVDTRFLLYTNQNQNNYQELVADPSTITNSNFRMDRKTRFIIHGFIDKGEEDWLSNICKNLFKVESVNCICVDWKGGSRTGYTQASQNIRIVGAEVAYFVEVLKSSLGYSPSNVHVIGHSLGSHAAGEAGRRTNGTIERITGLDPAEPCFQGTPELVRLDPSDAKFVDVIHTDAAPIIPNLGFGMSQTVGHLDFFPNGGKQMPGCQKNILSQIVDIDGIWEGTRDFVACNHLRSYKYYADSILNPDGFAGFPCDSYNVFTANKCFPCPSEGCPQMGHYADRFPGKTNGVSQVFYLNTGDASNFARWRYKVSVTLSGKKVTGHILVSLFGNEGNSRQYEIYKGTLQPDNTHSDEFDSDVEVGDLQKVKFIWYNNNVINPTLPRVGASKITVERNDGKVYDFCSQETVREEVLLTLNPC
# [3] = molecular target: T3, mDAGLα (Mus musculus, UniProt Q6WQJ1); assay: Radio-TLC assay with [14C]SAG substrate, mDAGLα; conditions: for potency for mDAGLα relative to analogs of (S)-α-amino acids: 10 nM to 10 μM
# T3 sequence (Q6WQJ1 1-1044): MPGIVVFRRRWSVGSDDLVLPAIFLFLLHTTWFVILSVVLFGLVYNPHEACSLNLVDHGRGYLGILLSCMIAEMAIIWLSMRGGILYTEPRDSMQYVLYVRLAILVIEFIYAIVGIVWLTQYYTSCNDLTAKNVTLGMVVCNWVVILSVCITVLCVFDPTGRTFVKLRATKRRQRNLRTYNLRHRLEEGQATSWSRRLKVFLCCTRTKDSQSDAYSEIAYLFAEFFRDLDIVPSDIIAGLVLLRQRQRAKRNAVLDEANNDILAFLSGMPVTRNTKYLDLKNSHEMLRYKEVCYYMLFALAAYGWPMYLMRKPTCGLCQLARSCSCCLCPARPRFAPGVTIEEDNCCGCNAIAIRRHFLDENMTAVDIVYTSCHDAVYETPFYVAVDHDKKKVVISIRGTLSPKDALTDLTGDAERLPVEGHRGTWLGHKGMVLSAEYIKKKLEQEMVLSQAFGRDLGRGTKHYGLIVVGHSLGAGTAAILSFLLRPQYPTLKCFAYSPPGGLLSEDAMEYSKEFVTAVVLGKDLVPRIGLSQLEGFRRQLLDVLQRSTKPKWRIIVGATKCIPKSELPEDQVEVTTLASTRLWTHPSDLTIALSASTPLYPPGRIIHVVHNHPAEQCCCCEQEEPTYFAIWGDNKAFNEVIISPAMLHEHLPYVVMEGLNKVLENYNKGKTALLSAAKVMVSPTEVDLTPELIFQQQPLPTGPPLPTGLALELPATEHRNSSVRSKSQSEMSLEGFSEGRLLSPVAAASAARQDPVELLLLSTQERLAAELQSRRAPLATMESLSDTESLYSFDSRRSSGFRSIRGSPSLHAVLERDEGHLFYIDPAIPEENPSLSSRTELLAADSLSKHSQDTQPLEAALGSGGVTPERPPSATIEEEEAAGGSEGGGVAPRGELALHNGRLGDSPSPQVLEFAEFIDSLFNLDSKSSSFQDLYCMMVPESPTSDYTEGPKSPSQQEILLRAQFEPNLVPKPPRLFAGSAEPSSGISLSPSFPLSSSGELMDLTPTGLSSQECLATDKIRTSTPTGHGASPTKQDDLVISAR
# [4] = 10 μM, 0.05% Triton X-100 present
"hDAGLα inhibition at 10 μM TLC (with Triton X-100) (%) [1, 4]",Pancreatic Lipase (Porcine) inhibition at 10 μM (%) ([2]; 10 μM),mDAGLα inhibition at 10 nM (%) [3],potency for mDAGLα relative to analogs of (S)-α-amino acids [3],mDAGLα inhibition at 100 nM (%) [3],mDAGLα inhibition at 1000 nM (%) [3],mDAGLα inhibition at 10000 nM (%) ([3]; 10000 nM),Structure (SMILES),inhibition of hDAGLα at 10 μM ([1]; 10 μM),"inhibition of porcine triacylglycerol lipase, FRET ([2]; preliminary studies)",inhibition at 10 µM ([2]; read-out: Pancreatic Lipase (Porcine) inhibition at 10 μM (%)),inhibition at 0.01 µM ([3]; read-out: mDAGLα inhibition at 10 nM (%)),inhibition at 0.1 µM ([3]; read-out: mDAGLα inhibition at 100 nM (%)),hDAGLα inhibition at 10 μM TLC (with Triton X-100) (%) [1],inhibition of hDAGLα in radio-TLC assays [1],Pancreatic Lipase (Porcine) inhibition at 10 μM (%) [2],mDAGLα inhibition at 10000 nM (%) [3]
,,,,,,,"CCCCCCCCCCC[C@@H](C[C@@H]1OC(=O)[C@H]1CCCCCC)OC(=O)[C@H](CC(C)C)NC=O [Compound 3, tetrahydrolipstatin]",complete inhibition,potent inhibition,96%,55%,72%,,,,
(78^A) %,99%,33%,clearly less potent,29%,69%,85%,CCCCCCCCCCCC(CC1OC(=O)C1CCCCCC)OC(=O)C(NC=O)C(C)CC (centres unmarked) [Compound 6],,,,,,,,,
(86^A) %,95%,19%,clearly less potent,51%,75%,90%,CCCCCCCCCCC[C@@H](C[C@@H]1OC(=O)[C@H]1CCCCCC)OC(=O)[C@H](NC=O)[C@@H](C)CC [Compound 7],,,,,,,,,
,,,,,,,O=C(Oc1ccc([N+](=O)[O-])cc1)N1CCC(C(O)(c2ccc3c(c2)OCO3)c2ccc3c(c2)OCO3)CC1 [JZL184],,,,,,(37^B) %,poor inhibitors,36%,3%
